In general, IC50 refers to the concentration that gives 50% inhibition.

The values below come from publication PMC9571547, “New Triazinoindole Bearing Benzimidazole/Benzoxazole Hybrids Analogs as Potent Inhibitors of Urease: Synthesis, In Vitro Analysis and Molecular Docking Studies” (Molecules, 2022).

One assay deals with urease enzyme (Canavalia ensiformis, UniProt P07374). Description: biochemical. The assay is classed as biochemical.
urease enzyme, sequence (P07374 whole entry, looked up): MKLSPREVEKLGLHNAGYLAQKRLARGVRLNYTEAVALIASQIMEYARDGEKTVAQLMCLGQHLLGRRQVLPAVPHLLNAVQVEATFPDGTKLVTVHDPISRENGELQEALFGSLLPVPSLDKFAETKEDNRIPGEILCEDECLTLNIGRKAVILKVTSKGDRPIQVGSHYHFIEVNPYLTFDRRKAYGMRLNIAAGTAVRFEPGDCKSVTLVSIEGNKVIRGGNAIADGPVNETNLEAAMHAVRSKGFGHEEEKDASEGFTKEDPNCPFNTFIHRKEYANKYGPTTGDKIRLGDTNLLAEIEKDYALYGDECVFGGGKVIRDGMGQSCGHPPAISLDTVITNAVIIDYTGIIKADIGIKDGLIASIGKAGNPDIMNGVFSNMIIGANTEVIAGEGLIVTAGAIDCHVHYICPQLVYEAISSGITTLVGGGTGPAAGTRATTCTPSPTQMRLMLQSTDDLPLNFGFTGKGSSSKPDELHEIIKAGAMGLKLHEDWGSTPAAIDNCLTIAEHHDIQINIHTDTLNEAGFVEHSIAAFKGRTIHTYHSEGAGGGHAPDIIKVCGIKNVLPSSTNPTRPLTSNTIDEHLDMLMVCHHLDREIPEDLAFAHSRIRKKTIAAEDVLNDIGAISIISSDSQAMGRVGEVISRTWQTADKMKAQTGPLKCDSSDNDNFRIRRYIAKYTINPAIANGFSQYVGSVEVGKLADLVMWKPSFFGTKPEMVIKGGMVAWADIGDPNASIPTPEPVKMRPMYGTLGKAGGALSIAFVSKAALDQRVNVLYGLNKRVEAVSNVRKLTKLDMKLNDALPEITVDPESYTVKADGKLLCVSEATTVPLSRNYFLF
Conditions: not given
On the procedure:
First, 5 μL of the test compounds were added to the reaction mixtures, which also contained 25 μL of enzyme solution and 55 μL of buffer containing 100 mM urea, then the mixtures were incubated in 96-well plates at 30 °C for 15 min (0.5 mM concentration). For the kinetics analysis, urea concentrations were changed from 2 to 24 mM. Urease activity was determined by measuring ammonia generation using Weatherburn’s indophenol method. In a nutshell, each well received 45 μL of the 0.005% w/v sodium nitroprusside, phenol reagent 1% w/v phenol, and 70 μL of the alkali reagent—0.1% active chloride NaOCl and 0.5% w/v NaOH. Using a microplate reader, rising absorbance at 630 nm was observed after 50 min (Molecular Devices, San Jose, CA, USA). In a final volume of 200 μL, each reaction was carried out three times. Using the software SoftMaxPro, the results (change in absorbance per minute) were processed (Molecular Devices, San Jose, CA, USA). The experiments were run at pH 6.8 throughout. The formula 100-(ODtest well/ODcontrol) 100 was used to calculate the percentage of inhibition.
In the case of `O=C(c1ccc([N+](=O)[O-])cc1)n1c(CSc2nnc3c4cc([N+](=O)[O-])ccc4n(C(=O)c4ccc([N+](=O)[O-])cc4)c3n2)nc2ccccc21` [analog 1], the IC50 is 17.6 ± 0.3 µM.
Still for that read-out and setting: in the case of `O=C(c1ccc(O)cc1O)n1c(CSc2nnc3c4cc([N+](=O)[O-])ccc4n(C(=O)c4ccc(O)cc4O)c3n2)nc2ccccc21` [analog 2] it was 1.9 ± 0.1 µM; in that of `O=C(c1cc(O)cc(O)c1)n1c(CSc2nnc3c4cc([N+](=O)[O-])ccc4n(C(=O)c4cc(O)cc(O)c4)c3n2)nc2ccccc21` [analog 3], 2.1 ± 0.1 µM.
Consider `COc1ccccc1C(=O)n1c(CSc2nnc3c4cc([N+](=O)[O-])ccc4n(C(=O)c4ccccc4OC)c3n2)nc2ccccc21` [analog 4], for which the IC50 was determined as 32.2 ± 0.3 µM.
For `O=C(c1ccc(O)c(O)c1)n1c(CSc2nnc3c4cc([N+](=O)[O-])ccc4n(C(=O)c4ccc(O)c(O)c4)c3n2)nc2ccccc21` [analog 5], 0.9 ± 0.01 µM corresponded to half-maximal inhibition (IC50).
The compound `O=C(c1cc(O)ccc1O)n1c(CSc2nnc3c4cc([N+](=O)[O-])ccc4n(C(=O)c4cc(O)ccc4O)c3n2)nc2ccccc21` [analog 6] yielded an IC50 of 6.7 ± 0.2 µM.
For `O=C(c1cccc(O)c1)n1c(CSc2nnc3c4cc([N+](=O)[O-])ccc4n(C(=O)c4cccc(O)c4)c3n2)nc2ccccc21` [analog 7], inhibition was half-maximal at 18.9 ± 0.4 µM (IC50).
As for `O=C(c1c(O)cc(O)cc1O)n1c(CSc2nnc3c4cc([N+](=O)[O-])ccc4n(C(=O)c4c(O)cc(O)cc4O)c3n2)nc2ccccc21` [analog 8], the IC50 was determined as 0.2 ± 0.01 µM.
On the same count and under the same terms, the same measure for `CN(C)c1ccc(C(=O)n2c(CSc3nnc4c5cc([N+](=O)[O-])ccc5n(C(=O)c5ccc(N(C)C)cc5)c4n3)nc3ccccc32)cc1` [analog 9]: 31.1 ± 0.3 µM; for `O=C(c1ccccc1[N+](=O)[O-])n1c(CSc2nnc3c4cc([N+](=O)[O-])ccc4n(C(=O)c4ccccc4[N+](=O)[O-])c3n2)nc2ccccc21` [analog 10]: 19.3 ± 0.4 µM; for `O=C(c1cccc([N+](=O)[O-])c1)n1c(CSc2nnc3c4cc([N+](=O)[O-])ccc4n(C(=O)c4cccc([N+](=O)[O-])c4)c3n2)nc2ccccc21` [analog 11]: 26.6 ± 0.5 µM.
In the case of `O=C(c1ccc(O)cc1)n1c(CSc2nnc3c4cc([N+](=O)[O-])ccc4n(C(=O)c4ccc(O)cc4)c3n2)nc2ccccc21` [analog 12], the IC50 stood at 14.6 ± 0.3 µM.
On to `O=C(c1ccc(Cl)cc1)n1c2ccc([N+](=O)[O-])cc2c2nnc(SCc3nc4ccccc4o3)nc21` [analog 13], for which the IC50 was 9.7 ± 0.2 µM.
Turning to `COC(=O)c1ccc(C(=O)n2c3ccc([N+](=O)[O-])cc3c3nnc(SCc4nc5ccccc5o4)nc32)cc1` [analog 14], inhibition was half-maximal at 23.9 ± 0.5 µM (IC50).
Still for that read-out and setting: the same measure for `Cc1ccccc1C(=O)n1c2ccc([N+](=O)[O-])cc2c2nnc(SCc3nc4ccccc4o3)nc21` [analog 15]: 36.2 ± 0.7 µM; for `Cc1ccc(C(=O)n2c3ccc([N+](=O)[O-])cc3c3nnc(SCc4nc5ccccc5o4)nc32)cc1` [analog 16]: 28.2 ± 0.5 µM.
Compound `O=C(c1cccc(Cl)c1)n1c2ccc([N+](=O)[O-])cc2c2nnc(SCc3nc4ccccc4o3)nc21` [analog 17] displayed an IC50 of 22.2 ± 0.5 µM.
Still for that read-out and setting: in the case of `O=C(c1ccccc1O)n1c2ccc([N+](=O)[O-])cc2c2nnc(SCc3nc4ccccc4o3)nc21` [analog 18] it was 3.8 ± 0.1 µM; in that of `Cc1cccc(C(=O)n2c3ccc([N+](=O)[O-])cc3c3nnc(SCc4nc5ccccc5o4)nc32)c1` [analog 19], 34.9 ± 0.7 µM; in that of `COc1ccc(C(=O)n2c3ccc([N+](=O)[O-])cc3c3nnc(SCc4nc5ccccc5o4)nc32)cc1O` [analog 20], 2.7 ± 0.1 µM.
Compound `COc1ccc(C(=O)n2c3ccc([N+](=O)[O-])cc3c3nnc(SCc4nc5ccccc5o4)nc32)c(OC)c1` [analog 21] displayed an IC50 of 31.8 ± 0.5 µM.
Still for that read-out and setting: the same measure for `O=C(c1cccc(O)c1O)n1c2ccc([N+](=O)[O-])cc2c2nnc(SCc3nc4ccccc4o3)nc21` [analog 22]: 1.7 ± 0.1 µM; for `O=C(c1ccccc1F)n1c2ccc([N+](=O)[O-])cc2c2nnc(SCc3nc4ccccc4o3)nc21` [analog 23]: 1.1 ± 0.01 µM.
`O=C(c1cccc(F)c1)n1c2ccc([N+](=O)[O-])cc2c2nnc(SCc3nc4ccccc4o3)nc21` [analog 24] had an IC50 of 1.6 ± 0.01 µM.
Turning to `O=C(c1cccc([N+](=O)[O-])c1)n1c2ccc([N+](=O)[O-])cc2c2nnc(SCc3nc4ccccc4o3)nc21` [analog 25], the IC50 came out at 21.2 ± 0.4 µM.

Still in this assay, the particulars now being: in vitro; pH 6.8; 30 °C; 100 mM urea; thiourea as standard; read-out: IC50 ± SEM against the urease enzyme.
`NC(N)=S` [Standard Thiourea, thiourea, reference compound]: the IC50 is 21.9 ± 0.4 µM.

Staying with this assay, now noted: urease inhibition, compared to thiourea.
Take `O=C(c1cccc(O)c1O)n1c2ccc([N+](=O)[O-])cc2c2nnc(SCc3nc4ccccc4o3)nc21` [analog 22]: the “potency relative to standard thiourea drug (fold)” value is “ten-fold-enhanced inhibitory potential”.
On to `O=C(c1ccccc1F)n1c2ccc([N+](=O)[O-])cc2c2nnc(SCc3nc4ccccc4o3)nc21` [analog 23], for which the “potency relative to standard thiourea drug (fold)” value is on record as “ten-fold-enhanced inhibitory potential”.
